# Like-named read-outs stand apart in the source and are kept apart here.
# Key:
# Format in all cases: in vivo
# [1] = tested on: galium (catchweed bedstraw, Galium aparine); assay: Test A greenhouse herbicide test, postemergence; details: for Plant response rating, Galium: 125 g ai/ha, 0 to 100 scale where 0 is no effect and 100 is complete control; for Galium plant response rating: 500 g ai/ha
# Source text: (§1) At the same time, plants selected from these crop and weed species and also blackgrass (Alopecurus myosuroides), and galium (catchweed bedstraw, Galium aparine) were planted in pots containing the same blend of loam soil and sand and treated with postemergence applications of test chemicals formulated in the same manner. Plants ranged in height from 2 to 10 cm and were in the one- to two-leaf stage for the postemergence treatment. Treated plants and untreated controls were maintained in a greenhouse for approximately 10 d, after which time all treated plants were compared to untreated controls and visually evaluated for injury. Plant response ratings, summarized in Table A, are based on a 0 to 100 scale where 0 is no effect and 100 is complete control. A dash (-) response means no test result.
# [2] = tested on: blackgrass (Alopecurus myosuroides); assay: Test A greenhouse herbicide test, postemergence; details: for Plant response rating, Blackgrass: 125 g ai/ha, 0 to 100 scale where 0 is no effect and 100 is complete control; for Blackgrass plant response rating: 500 g ai/ha
# Source text: as §1
# [3] = tested on: wheat (Triticum aestivum); assay: Test A greenhouse herbicide test, pre- and postemergence; details: Postemergence; for Plant response rating, Wheat: 125 g ai/ha, 0 to 100 scale where 0 is no effect and 100 is complete control; for Wheat plant response rating: 500 g ai/ha
# Source text: (§2) Seeds of plant species selected from barnyardgrass (Echinochloa crus-galli), kochia (Kochia scoparia), ragweed (common ragweed, Ambrosia elatior), ryegrass, Italian (Italian ryegrass, Lolium multiflorum), crabgrass, large (large crabgrass, Digitaria sanguinalis), foxtail, giant (giant foxtail, Setaria faberii), momingglory (Ipomoea spp.), pigweed (Amaranthus retroflexus), velvetleaf (Abutilon theophrasti), wheat (Triticum aestivum), and corn (Zea mays) were planted into a blend of loam soil and sand and treated preemergence with a directed soil spray using test chemicals formulated in a non-phytotoxic solvent mixture which included a surfactant.
# as §1
# [4] = tested on: corn (Zea mays); assay: as above; details: Postemergence; for Plant response rating, Corn: 125 g ai/ha, 0 to 100 scale where 0 is no effect and 100 is complete control; for Corn plant response rating: 500 g ai/ha
# Source text: as §2, §1
# [5] = tested on: kochia (Kochia scoparia); assay: as above; details: for pest or weed control at 1000 g/ha: Bassia scoparia, 240 h, 1000 g ai/ha
# Source text: as §2, §1
# [6] = tested on: ryegrass, Italian (Italian ryegrass, Lolium multiflorum); assay: as above; details: for pest or weed control at 1000 g/ha: Lolium multiflorum, 240 h, 1000 g ai/ha
# Source text: as §2, §1
# [7] = tested on: barnyardgrass (Echinochloa crus-galli); assay: as above; details: for pest or weed control at 1000 g/ha: Echinochloa crus-galli, 240 h, 1000 g ai/ha
# Source text: as §2, §1
# [8] = tested on: ragweed (common ragweed, Ambrosia elatior); assay: as above; details: for pest or weed control at 1000 g/ha: Ambrosia artemisiifolia, 240 h, 1000 g ai/ha
# Source text: as §2, §1
# [9] = tested on: pigweed (Amaranthus retroflexus); assay: as above; details: for pest or weed control at 1000 g/ha: Amaranthus retroflexus, 240 h, 1000 g ai/ha
# Source text: as §2, §1
# [10] = tested on: foxtail, giant (giant foxtail, Setaria faberii); assay: as above; details: for pest or weed control at 1000 g/ha: Setaria faberi, 240 h, 1000 g ai/ha
# Source text: as §2, §1
# [11] = tested on: ducksalad (Heteranthera limosa); assay: Test B flooded paddy test; details: 250 g ai/ha, Flood, visual rating on scale of 0 to 100 where 0 is no effect and 100 is complete control, 13 to 15 d after treatment
# Method: (§3) Plant species in the flooded paddy test selected from rice (Oryza sativa), sedge, umbrella (small-flower umbrella sedge, Cyperus difformis), ducksalad (Heteranthera limosa), and barnyardgrass (Echinochloa crus-galli) were grown to the 2-leaf stage for testing. At time of treatment, test pots were flooded to 3 cm above the soil surface, treated by application of test compounds directly to the paddy water, and then maintained at that water depth for the duration of the test. Treated plants and controls were maintained in a greenhouse for 13 to 15 d, after which time all species were compared to controls and visually evaluated. Plant response ratings, summarized in Table B, are based on a scale of 0 to 100 where 0 is no effect and 100 is complete control. A dash (-) response means no test result.
# [12] = tested on: sedge, umbrella (small-flower umbrella sedge, Cyperus difformis); assay: Test B flooded paddy test; details: 250 g ai/ha, Flood, visual rating on scale of 0 to 100 where 0 is no effect and 100 is complete control, 13 to 15 d after treatment
# Method: as §3
# [13] = tested on: rice (Oryza sativa); assay: Test B flooded paddy test; details: 250 g ai/ha, Flood, visual rating on scale of 0 to 100 where 0 is no effect and 100 is complete control, 13 to 15 d after treatment
# Method: as §3
# [14] = tested on: barnyardgrass (Echinochloa crus-galli); assay: Test B flooded paddy test; details: 250 g ai/ha, Flood, visual rating on scale of 0 to 100 where 0 is no effect and 100 is complete control, 13 to 15 d after treatment
# Method: as §3
# [15] = 0 to 100 scale, 0 is no effect, 100 is complete control
# [16] = Postemergence, 125 g ai/ha, 0 to 100 scale where 0 is no effect and 100 is complete control
# [17] = Postemergence, 500 g ai/ha, 0 to 100 scale, 0 is no effect, 100 is complete control
# [18] = Preemergence, 125 g ai/ha, 0 to 100 scale where 0 is no effect and 100 is complete control
# [19] = Preemergence, 500 g ai/ha, 0 to 100 scale, 0 no effect, 100 complete control
smiles,measurement,setting,value
"CCc1ccc2oc(C)c(-c3c(O)c(C)nn(C)c3=O)c2c1 [Compound 13, 4-(5-ethyl-2-methyl-3-benzofuranyl)-5-hydroxy-2,6-dimethyl-3(2H)-pyridazinone]",pest or weed control at 1000 g/ha,"[1]; Galium, post-emergence, 240 h, 1000 g ai/ha, 0 to 100 scale, 0 is no effect, 100 is complete control, read-out: Galium plant response rating",70%
same,pest or weed control at 1000 g/ha,"[2]; Alopecurus myosuroides, post-emergence, 240 h, 1000 g ai/ha, 0 to 100 scale, 0 is no effect, 100 is complete control, read-out: Blackgrass plant response rating",30%
same,plant injury at 1000 g/ha,"[3]; Triticum aestivum, post-emergence, 240 h, 1000 g ai/ha, 0 to 100 scale, 0 is no effect, 100 is complete control, read-out: Wheat plant response rating",20%
same,plant injury at 1000 g/ha,"[4]; Zea mays, post-emergence, 240 h, 1000 g ai/ha, 0 to 100 scale, 0 is no effect, 100 is complete control, read-out: Corn plant response rating",20%
same,pest or weed control at 1000 g/ha,"[5]; post-emergence, Postemergence, 0 to 100 scale, 0 is no effect, 100 is complete control, read-out: Kochia plant response rating",30%
same,pest or weed control at 1000 g/ha,"[5]; pre-emergence, Preemergence, 0 to 100 scale, 0 no effect, 100 complete control, read-out: Plant response rating, Kochia",20%
same,pest or weed control at 1000 g/ha,"[6]; post-emergence, Postemergence, 0 to 100 scale, 0 is no effect, 100 is complete control, read-out: Ryegrass, Italian plant response rating",70%
same,pest or weed control at 1000 g/ha,"[6]; pre-emergence, Preemergence, 0 to 100 scale, 0 no effect, 100 complete control, read-out: Plant response rating, Ryegrass, Italian",60%
same,pest or weed control at 1000 g/ha,"[7]; post-emergence, Postemergence, 0 to 100 scale, 0 is no effect, 100 is complete control, read-out: Barnyardgrass plant response rating",80%
same,pest or weed control at 1000 g/ha,"[7]; pre-emergence, Preemergence, 0 to 100 scale, 0 no effect, 100 complete control, read-out: Plant response rating, Barnyardgrass",60%
same,pest or weed control at 1000 g/ha,"[8]; post-emergence, Postemergence, 0 to 100 scale, 0 is no effect, 100 is complete control, read-out: Ragweed plant response rating",30%
same,pest or weed control at 1000 g/ha,"[8]; pre-emergence, Preemergence, 0 to 100 scale, 0 no effect, 100 complete control, read-out: Plant response rating, Ragweed",0%
same,pest or weed control at 1000 g/ha,"[9]; post-emergence, Postemergence, 0 to 100 scale, 0 is no effect, 100 is complete control, read-out: Pigweed plant response rating",20%
same,pest or weed control at 1000 g/ha,"[9]; pre-emergence, Preemergence, 0 to 100 scale, 0 no effect, 100 complete control, read-out: Plant response rating, Pigweed",0%
same,pest or weed control at 1000 g/ha,"[10]; post-emergence, Postemergence, 0 to 100 scale, 0 is no effect, 100 is complete control, read-out: Foxtail, Giant plant response rating",80%
same,pest or weed control at 1000 g/ha,"[10]; pre-emergence, Preemergence, 0 to 100 scale, 0 no effect, 100 complete control, read-out: Plant response rating, Foxtail, Giant",50%
same,pest or weed control at 250 g/ha,"[11]; Heteranthera limosa, 360 h, read-out: Plant response rating, Ducksalad",0%
same,pest or weed control at 250 g/ha,"[12]; Cyperus difformis, 360 h, read-out: Plant response rating, Sedge, Umbrella",0%
same,plant injury at 250 g/ha,"[13]; Oryza sativa, 360 h, read-out: Plant response rating, Rice",0%
same,pest or weed control at 250 g/ha,"[14]; Echinochloa crus-galli, 360 h, read-out: Plant response rating, Barnyardgrass",0%
Cc1cc(C)c2sc(C)c(-c3c(OC(=O)C(C)(C)C)c(C)nn(C)c3=O)c2c1 [Compound 43],"Plant response rating, Galium",[1],50
same,Galium plant response rating,[1]; [15],90
same,"Plant response rating, Blackgrass",[2],30
same,Blackgrass plant response rating,[2]; [15],80
same,"Plant response rating, Wheat",[3],0
same,Wheat plant response rating,[3]; [15],0
same,"Plant response rating, Corn",[4],0
same,Corn plant response rating,[4]; [15],0
same,"Plant response rating, Kochia",[5]; [16],0
same,Kochia plant response rating,[5]; [17],10
same,Kochia plant response rating,[5]; [18],50
same,"Plant response rating, Kochia",[5]; [19],20
same,"Plant response rating, Ryegrass, Italian",[6]; [16],40
same,"Ryegrass, Italian plant response rating",[6]; [17],60
same,"Ryegrass, Italian plant response rating",[6]; [18],10
same,"Plant response rating, Ryegrass, Italian",[6]; [19],70
same,"Plant response rating, Barnyardgrass",[7]; [16],0
same,Barnyardgrass plant response rating,[7]; [17],30
same,Barnyardgrass plant response rating,[7]; [18],0
same,"Plant response rating, Barnyardgrass",[7]; [19],10
same,"Plant response rating, Ragweed",[8]; [16],0
same,Ragweed plant response rating,[8]; [17],0
same,Ragweed plant response rating,[8]; [18],0
same,"Plant response rating, Ragweed",[8]; [19],10
same,"Plant response rating, Pigweed",[9]; [16],0
same,Pigweed plant response rating,[9]; [17],10
same,Pigweed plant response rating,[9]; [18],0
same,"Plant response rating, Pigweed",[9]; [19],10
same,"Plant response rating, Foxtail, Giant",[10]; [16],0
same,"Foxtail, Giant plant response rating",[10]; [17],70
same,"Foxtail, Giant plant response rating",[10]; [18],0
same,"Plant response rating, Foxtail, Giant",[10]; [19],50
same,"Plant response rating, Ducksalad",[11],0
same,"Plant response rating, Sedge, Umbrella",[12],0
same,"Plant response rating, Rice",[13],0
same,"Plant response rating, Barnyardgrass",[14],0
CC(=O)Oc1c(C)nn(C)c(=O)c1-c1c(C)sc2cc(C)cc(C)c12 [Compound 44],"Plant response rating, Galium",[1],30
same,Galium plant response rating,[1]; [15],70
same,"Plant response rating, Blackgrass",[2],0
same,Blackgrass plant response rating,[2]; [15],0
same,"Plant response rating, Wheat",[3],0
same,Wheat plant response rating,[3]; [15],0
same,"Plant response rating, Corn",[4],0
same,Corn plant response rating,[4]; [15],0
same,"Plant response rating, Kochia",[5]; [16],0
same,Kochia plant response rating,[5]; [17],0
same,Kochia plant response rating,[5]; [18],0
same,"Plant response rating, Kochia",[5]; [19],0
same,"Plant response rating, Ryegrass, Italian",[6]; [16],0
same,"Ryegrass, Italian plant response rating",[6]; [17],0
same,"Ryegrass, Italian plant response rating",[6]; [18],0
same,"Plant response rating, Ryegrass, Italian",[6]; [19],0
same,"Plant response rating, Barnyardgrass",[7]; [16],0
same,Barnyardgrass plant response rating,[7]; [17],0
same,Barnyardgrass plant response rating,[7]; [18],0
same,"Plant response rating, Barnyardgrass",[7]; [19],0
same,"Plant response rating, Ragweed",[8]; [16],0
same,Ragweed plant response rating,[8]; [17],0
same,Ragweed plant response rating,[8]; [18],0
same,"Plant response rating, Ragweed",[8]; [19],10
same,"Plant response rating, Pigweed",[9]; [16],0
same,Pigweed plant response rating,[9]; [17],0
same,Pigweed plant response rating,[9]; [18],0
same,"Plant response rating, Pigweed",[9]; [19],0
same,"Plant response rating, Foxtail, Giant",[10]; [16],0
same,"Foxtail, Giant plant response rating",[10]; [17],0
same,"Foxtail, Giant plant response rating",[10]; [18],0
same,"Plant response rating, Foxtail, Giant",[10]; [19],0
same,"Plant response rating, Ducksalad",[11],0
same,"Plant response rating, Sedge, Umbrella",[12],0
same,"Plant response rating, Rice",[13],0
same,"Plant response rating, Barnyardgrass",[14],0
